Five compounds from patent EP1914235A1, “CHIRAL TETRA-HYDRO BETA-CARBOLINE DERIVATIVES AND APPLICATIONS THEREOF AS ANTIPARASITIC COMPOUNDS” (Université de Lille 2 Droit et Santé, priority 2006, dated 2008) can be followed below.

In assay [1] the test system is Plasmodium berghei ANKA strain. The experiment in a line: In vivo antiparasitic activity in infected mice (4-day dosing, parasitemia on day 5). The settings on record: mice infected with P. berghei ANKA; for Activity at the dose 10 mg/kg (%): 10 mg/kg every day for 4 days; for Activity at the dose 50 mg/kg (%): 50 mg/kg every day for 4 days. The procedure:
Female mice (TFW or BALB/c, specific pathogen free), 18-20 g, or
Infection: Blood was taken from donor mice and diluted in RPMI-1640 medium to a parasitemia of 1% (the equivalent of 1x10^7 infected erythrocytes/ml) whilst kept on ice. An inoculum of 0.2 ml was administered to each mouse by the intravenous route. At 2-4 hours post-inoculation dosing commences.
Evaluation endpoint: On day 5 blood smears of all animals (2 slides/mouse) were prepared, fixed with methanol and stained with 10% Giemsa's stain. Parasitemia was determined microscopically by counting 1000 red blood cells under oil immersion at 1000x magnification.
Each of the tested compounds of formula (I) according to the invention was prepared as a stock solution of 5 mg/ml in 10% DMSO/PBS. Insoluble compounds of formula (I) were milled with stainless steel balls for up to 24 hours to reduce particle size. Fresh dilutions were prepared each day. The route of administration of tested compounds is intra peritoneal (i.p.).
Compounds were formulated at 10 mg/kg or at 50 mg/kg in a standard suspension vehicle (0.5% carboxymethylcellulose, 0.5% benzyl alcohol, 0.4% Tween® 80 in 0.9% NaCl) for both oral and i.p. administration.
Dosing was over a 4 day period as above, and evaluation was also as above.

Another assay has as its system P. falciparum K1 strain. The experiment in a line: [3H]hypoxanthine drug sensitivity assay, K1 strain. The format is cell-based. To be noted: Plasmodium falciparum, K1; read-out: IC50 K1. The protocol:
(§1) The cultures are naturally asynchronous (65-75% ring stage) and are maintained in continuous log phase growth in RPMI-1640 medium (as developed by Moore et. al. at Roswell Park Memorial Institute, sold by Sigma Aldrich) supplemented with 5% washed human A+ erythrocytes, 25 mM Hepes, […] NaHCO3, and AlbuMAXII (lipid-rich bovine serum albumin) sold GIBCO, Grand Island, NY (CM). All cultures and assays were conducted at 37°C under an atmosphere of 5% CO2 and 5% O2, with a balance of N2.
(§2) The compounds were further diluted to the appropriate concentration using complete medium RPMI-1640 supplemented with 15nM cold hypoxanthine and AlbuMAXII.
(§3) Assays were performed in sterile 96-well microtitre plates; each plate contained 100 µl of parasite culture (0.5% parasitemia, 2.5% hematocrit). Each compound was tested in triplicate and parasite growth compared to control and blank (uninfected erythrocytes) wells. After 24h of incubation at 37°C, […] of [^3H]hypoxanthine was added to each well. Cultures were incubated for a further 24 h before they were harvested onto glass-fiber filter mats. The radioactivity was counted using a Wallac Microbeta® 1450 scintillation counter. The results were recorded as counts per minute (CPM) per well at each compound concentration, control and blank wells. Percentage inhibition was calculated from comparison to blank and control wells, and IC50 values calculated using Microsoft XLFit ® line fitting software (IDBS, UK).
(§4) Both the 3D7 clone and the K1 line were used. The compounds were diluted three-fold over at 12 different concentrations with an appropriate starting concentration based on the preliminary screen. The IC50 was determined by a sigmoidal dose response analysis using Microsoft XLFit™ (IDBS, UK).

Assay [2] relates to P. falciparum 3D7 clone of NF54. As to the kind of experiment: [3H]hypoxanthine drug sensitivity assay, 3D7 clone. In kind it is cell-based. To be noted: Plasmodium falciparum; P. falciparum 3D7, sensitive to all anti-malarials; 48 h, [3H]hypoxanthine uptake; read-out: IC50 3D7(µg/ml). The protocol: as §1, §2
as §3, with “The results were recorded as counts per minute (CPM) per well at each compound concentration, control and blank wells.” left out
The preliminary screen used the 3D7 strain. The compounds were tested at 6 concentrations (30, 10, 3, 1, 0.3, and 0.1 µg/ml).
as §4

Values after ≈ are worked out from the molar mass of the structure shown.

Regarding `CN(C)c1ccc(CN2CC[C@@H](N3CC(=O)N4[C@H](c5ccc6c(c5)OCO6)c5[nH]c6ccccc6c5C[C@@H]4C3=O)C2)cc1` [Compound 26, (6R,12aR)-6-Benzo[1,3]dioxol-5-yl-2-[(R)-1-(4-dimethylamino-benzyl)-pyrrolidin-3-yl]-2,3,6,7,12,12a-hexahydro-pyrazino[1',2':1,6]pyrido[3,4-b]indole-1,4-dione], in assay [1], the “Activity at the dose 10 mg/kg (%)” value was determined as 15% and the “Activity at the dose 50 mg/kg (%)” value was determined as 17%. Further, in the assay on P. falciparum K1 strain, the IC50 was determined as 0.14 µg/mL (≈ 0.242 µM). Besides, the IC50 in assay [2] was found to be 0.006 µg/mL (≈ 0.0104 µM).
`O=C1[C@H]2Cc3c([nH]c4ccccc34)[C@@H](c3ccc4c(c3)OCO4)N2C(=O)CN1[C@@H]1CCN(Cc2ccccn2)C1` [Compound 27, (6R,12aR)-6-Benzo[1,3]dioxol-5-yl-2-((R)-1-pyridin-2-ylmethyl-pyrrolidin-3-yl)-2,3,6,7,12,12a-hexahydro-pyrazino [1',2':1,6]pyrido[3,4-b]indole-1,4-dione]: the “Activity at the dose 50 mg/kg (%)” value in assay [1] turned out to be 10%. Further, the IC50 in the assay with P. falciparum K1 strain is 0.2 µg/mL (≈ 0.373 µM); in assay [2], 0.08 µg/mL (≈ 0.149 µM).
Regarding `Cn1ccnc1CN1CC[C@@H](N2CC(=O)N3[C@H](c4ccc5c(c4)OCO5)c4[nH]c5ccccc5c4C[C@@H]3C2=O)C1` [Compound 28, (6R,12aR)-6-Benzo[1,3]dioxol-5-yl-2-[(R)-1-(1-methyl-1H-imidazol-2-ylmethyl)-pyrrolidin-3-yl]-2,3,6,7,12,12a-hexahydro-pyrazino[1',2':1,6]pyrido[3,4-b]indole-1,4-dione], in assay [1], the “Activity at the dose 10 mg/kg (%)” value is on record as 24% and the “Activity at the dose 50 mg/kg (%)” value is recorded as 32%. Also, the IC50 in the assay on P. falciparum K1 strain was found to be 0.07 µg/mL (≈ 0.13 µM). In addition, the IC50 in assay [2] stood at 0.09 µg/mL (≈ 0.167 µM).
With `Cn1ccnc1CN1CC[C@@H](N2CC(=O)N3[C@@H](c4ccc5c(c4)OCO5)c4[nH]c5ccccc5c4C[C@@H]3C2=O)C1` [Compound 29, (6S,12aR)-6-Benzo[1,3]dioxol-5-yl-2-[(R)-1-(1-methyl-1H-imidazol-2-ylmethyl)-pyrrolidin-3-yl]-2,3,6,7,12,12a-hexahydro-pyrazino[1',2':1,6]pyrido[3,4-b]indole-1,4-dione], in assay [1], the “Activity at the dose 50 mg/kg (%)” value is 19%. The IC50 with P. falciparum K1 strain came to 0.09 µg/mL (≈ 0.167 µM); in assay [2], 0.5 µg/mL (≈ 0.928 µM).
`O=C1[C@H]2Cc3c([nH]c4ccccc34)[C@@H](c3ccc(Cl)nc3)N2C(=O)CN1[C@@H]1CCN(Cc2ccccc2)C1` [Compound 84c, (6R,12aR)-2-((R)-1-Benzyl-pyrrolidin-3-yl)-6-(6-chloro-pyridin-3-yl)-2,3,6,7,12,12a-hexahydro-pyrazino[1',2':1,6] pyrido[3,4-b]indole-1,4-dione]: in assay [1], the “Activity at the dose 50 mg/kg (%)” value is 9.1%. Besides, the IC50 with P. falciparum K1 strain is 0.11 µg/mL (≈ 0.209 µM); in assay [2], 0.07 µg/mL (≈ 0.133 µM).
